Results as given in US5576305A, “Intercellular adhesion mediators” (Cytel Corporation, priority 1995, dated 1996).

How the values were obtained:
rolling leukocytes = assay: leukocyte rolling (histamine-induced recruitment of rolling leukocytes); assay type: in vivo, rat; settings: FIG. 15, in words
recombinant E-selectin = assay: inhibition of binding of HL-60 cells to recombinant E-selectin; assay type: cell-based; settings: FIG. 13, concentration dependence, in words
selectin = assay: inhibitory effect of oligosaccharides on selectin-mediated adhesion; assay type: cell-based; settings: in words

CCO[C@@H]1O[C@H](CO)[C@H](O)[C@H](O[C@@H]2O[C@H](CO)[C@@H](O[C@@H]3O[C@H](CO)[C@H](O)[C@H](O[C@]4(C(=O)O)C[C@H](O)[C@@H](NC(C)=O)[C@H]([C@H](O)[C@H](O)CO)O4)[C@H]3O)[C@H](O)[C@H]2NC(C)=O)[C@H]1O [SLN, reference compound]
recruitment of rolling leukocytes / leukocyte rolling (rolling leukocytes): had no effect

CCOC1OC(CO)C(O)C(OC2OC(CO)C(OC3OC(CO)C(O)C(OC4(C(=O)O)CC(O)C(NC(C)=O)C(C(O)C(O)CO)O4)C3O)C(OC3OC(C)C(O)C(O)C3O)C2NC(C)=O)C1O [Z, Ethyl (sodium (5-acetamido-3,5-dideoxy-α-D-glycero-D-galacto-2-nonulopyanosylonate))-(2-3)-O-(β-D-galactopyranosyl)-(1-4)-O-((α-L-fucopyranosyl)-(1-3))-O-(2-acetamido-2-deoxy-β-D-glucopyranosyl)-(1-3)-O-β-D-galactopyranoside]
inhibition of binding of HL-60 cells to recombinant E-selectin (recombinant E-selectin): inhibition of binding of HL-60 cells to recombinant E-selectin in a concentration dependent manner | recruitment of rolling leukocytes / leukocyte rolling (rolling leukocytes): inhibited leukocyte rolling

NeuAcα2,3Galβ1,4(Fucα1,3)GlcNAcβ1,3Galβ--
inhibitory effect relative to the tetrasaccharide (selectin): substantially more inhibitory effect than the tetrasaccharide
